Laboratory results published in US10538555B2, “Macrocyclic inhibitors of the PD-1/PD-L1 and CD80(B7-1)/PD-L1 protein/protein interactions” (BRISTOL-MYERS SQUIBB COMPANY, priority 2014, dated 2020).
Where a SMILES comes first, the peptide text is derived from it. Bridges are numbered along the chain shown (N, C = ends). [ ]: non-standard residue; d: D form. ξ: configuration not given here. Trp(1-CH2COOH) = N[C@@H](Cc1cn(CC(=O)O)c2ccccc12)C(=O)O; Phe(3,4,5-F3) = N[C@@H](Cc1cc(F)c(F)c(F)c1)C(=O)O; NMePhe(4-F) = CN[C@@H](Cc1ccc(F)cc1)C(=O)O; Bta = N[C@@H](Cc1csc2ccccc12)C(=O)O; Hyp = O=C(O)[C@@H]1C[C@@H](O)CN1; NMeF = CN[C@@H](Cc1ccccc1)C(=O)O; NMeNle = CCCC[C@H](NC)C(=O)O; dPip = O=C(O)[C@H]1CCCCN1; NMeA = CN[C@@H](C)C(=O)O; Orn = NCCC[C@H](N)C(=O)O; Dab = NCC[C@H](N)C(=O)O; Dap = NC[C@H](N)C(=O)O; ξPip = O=C(O)C1CCCCN1; ξC = NC(CS)C(=O)O

Target: T1, Human PD-L1/PD-1 (Homo sapiens, UniProt Q9NZQ7)
T1 construct: TVMV protease cleavage site (C); made in house; host or cells: HEK293T cells
T1 sequence (Q9NZQ7 with tags, fused parts or gaps): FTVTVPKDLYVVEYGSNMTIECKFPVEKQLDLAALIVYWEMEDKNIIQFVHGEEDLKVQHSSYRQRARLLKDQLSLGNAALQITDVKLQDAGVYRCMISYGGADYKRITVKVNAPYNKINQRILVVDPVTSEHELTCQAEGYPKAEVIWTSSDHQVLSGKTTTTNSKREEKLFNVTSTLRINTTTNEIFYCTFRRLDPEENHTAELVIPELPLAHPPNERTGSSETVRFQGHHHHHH
Assay: HTRF Human PD-L1/PD-1 binding assay (PD-1-Ig/PD-L1-His)
Settings: PD-L1-His 10 nM, PD-1-Ig 20 nM; class symbol; read-out: HTRF Human PD-L1/PD-1 Binding Assay IC50 Range
Outline: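 HTRF competition using HEK293T-expressed human PD-1(25-167)-Ig at 20 nM and PD-L1(18-239)-His at 10 nM, compound incubated first with PD-L1 for 15 min, then with PD-1 for 15 min. Signal read as 665/620 nm ratio 30 min after adding Eu anti-Ig and APC anti-His antibodies.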

CCCC[C@H]1C(=O)N2CCC[C@@H]2C(=O)N[C@@H](CCN)C(=O)N[C@@H](C(C)C)C(=O)N(C)[C@@H](Cc2ccccc2)C(=O)N[C@@H](CCC(=O)O)C(=O)N2CCCC[C@@H]2C(=O)N[C@@H](Cc2c[nH]c3ccccc23)C(=O)N[C@@H](Cc2ccc(O)cc2)C(=O)N[C@@H](CC(C)C)C(=O)N[C@H](C(=O)NCC(N)=O)CSCC(=O)N[C@@H](Cc2cc(F)c(F)c(F)c2)C(=O)N(C)[C@@H](Cc2ccc(F)cc2)C(=O)N1C [Example 10577] ({CH2CO}-[Phe(3,4,5-F3)][NMePhe(4-F)][NMeNle][dP][Dab]V[NMeF]E[dPip]WYLCG-NH2; thioether N-13)
IC50: 1 to 9.9 nM

CCCC[C@H]1C(=O)N(C)[C@@H](CCCC)C(=O)N[C@@H](CCCN)C(=O)N[C@H](C(=O)NCC(N)=O)CSCC(=O)N[C@@H](Cc2ccc(O)cc2)C(=O)N2CCCCC2C(=O)N[C@@H](CC(=O)O)C(=O)N2CCC[C@H]2C(=O)N[C@@H](CN)C(=O)N[C@@H](CCC(=O)O)C(=O)N2C[C@H](O)C[C@H]2C(=O)N[C@@H](Cc2c[nH]c3ccccc23)C(=O)N[C@@H](CCN)C(=O)N[C@@H](Cc2c[nH]c3ccccc23)C(=O)N1C (stereo partly drawn) [Example 1528] ({CH2CO}-Y[ξPip]DP[Dap]E[Hyp]W[Dab]W[NMeNle][NMeNle][Orn]CG-NH2; thioether N-14)
IC50: 10 to 99.9 nM

CCCC[C@H]1C(=O)N(C)[C@@H](CCCC)C(=O)N[C@@H](CC(C)C)C(=O)N[C@H](C(=O)NCC(N)=O)CSCC(=O)N[C@@H](Cc2ccc(O)cc2)C(=O)N(C)[C@@H](C)C(=O)N[C@@H](CC(N)=O)C(=O)N2CCC[C@H]2C(=O)N[C@@H](CO)C(=O)N[C@@H](CCC(N)=O)C(=O)N2C[C@H](O)C[C@H]2C(=O)N[C@@H](Cc2c[nH]c3ccccc23)C(=O)N[C@@H](CO)C(=O)N[C@@H](Cc2cn(CC(=O)O)c3ccccc23)C(=O)N1C [Example 6216] ({CH2CO}-Y[NMeA]NPSQ[Hyp]WS[Trp(1-CH2COOH)][NMeNle][NMeNle]LCG-NH2; thioether N-14)
IC50: 1 to 9.9 nM

CCCC[C@H]1C(=O)N(C)[C@@H](CCCC)C(=O)N[C@@H](CCCN)C(=O)NC(C(=O)NCC(N)=O)CSCC(=O)N[C@@H](Cc2ccc(O)cc2)C(=O)N(C)[C@@H](C)C(=O)N[C@@H](CC(N)=O)C(=O)N2CCC[C@H]2C(=O)N[C@@H](CC(N)=O)C(=O)N[C@@H](CC(C)C)C(=O)N2C[C@H](O)C[C@H]2C(=O)N[C@@H](Cc2c[nH]c3ccccc23)C(=O)N[C@@H](CO)C(=O)N[C@@H](Cc2csc3ccccc23)C(=O)N1C (stereo partly drawn) [Example 9158] ({CH2CO}-Y[NMeA]NPNL[Hyp]WS[Bta][NMeNle][NMeNle][Orn][ξC]G-NH2; thioether N-14)
IC50: 1 to 9.9 nM

CCCC[C@H]1C(=O)N(C)[C@@H](CCCC)C(=O)NCC(=O)N[C@H](C(=O)NCC(N)=O)CSCC(=O)N[C@@H](Cc2ccc(O)cc2)C(=O)N(C)[C@@H](C)C(=O)N[C@@H](CC(N)=O)C(=O)N2CCC[C@H]2C(=O)NCC(=O)N[C@@H](CCC(N)=O)C(=O)N2C[C@H](O)C[C@H]2C(=O)N[C@@H](Cc2c[nH]c3ccccc23)C(=O)NCC(=O)N[C@@H](Cc2c[nH]c3ccccc23)C(=O)N1C [Example 5219] ({CH2CO}-Y[NMeA]NPGQ[Hyp]WGW[NMeNle][NMeNle]GCG-NH2; thioether N-14)
IC50: 1 to 9.9 nM

CCCC[C@H]1C(=O)N2CCC[C@@H]2C(=O)N[C@@H](CC(=O)O)C(=O)N[C@@H](C(C)C)C(=O)N(C)[C@@H](Cc2ccccc2)C(=O)N[C@@H](CCCN)C(=O)N2CCC[C@@H]2C(=O)N[C@@H](Cc2c[nH]c3ccccc23)C(=O)N[C@@H](Cc2ccc(O)cc2)C(=O)N[C@@H](CC(C)C)C(=O)N[C@H](C(=O)NCC(N)=O)CSCC(=O)N[C@@H](Cc2ccccc2)C(=O)N(C)[C@@H](Cc2ccccc2)C(=O)N1C [Example 10103] ({CH2CO}-F[NMeF][NMeNle][dP]DV[NMeF][Orn][dP]WYLCG-NH2; thioether N-13)
IC50: 1 to 9.9 nM
